Assay results taken from patent US6127409A, “Ascorbic acid derivative and vitamin C preparation containing the same” (priority 1997, dated 2000).
Where a name gives a salt, the structure may show the parent alone. Read-outs that look alike come from different tables or passages of the source.

Key:
[1] = tested on: normal human adult mamma epidermal Keratinocyte; format: cell-based; conditions: 20 hours culture
Experimental: About 6×10^5 cells of a normal human adult mamma epidermal Keratinocyte (available from Kurashiki Boseki KK) were sowed on a 60 mm plate and cultured in a serum-free culturing medium (manufactured by Kurashiki Boseki KK) for 2 hours, and after displacing with the same culturing medium having added thereto from 2 to 50 μM of an ascorbic acid or a derivative thereof, further cultured for 20 hours. The cells were collected by trypsin treatment, and the number of cells was counted by a Coulter Counter Model DN (trade name, manufactured by Coulter Electronics). The cells thus collected were washed with Hank's equilibrium salt solution, pulverized in an ultrasonic homogenizer, filtered through a Mol-cut II (UFPlLCC) (trade name, produced by Nippon Milipore KK) and analyzed by HPLC through a column Shodex Asahipak NH2P-50 4E (trade name, produced by Showa Denko KK). The amount of ascorbic acid and derivatives thereof was measured to determine the intracellular cumulative amount. As a control, culturing was performed in the same manner as above except for not adding ascorbic acid or a derivative thereof, and the ascorbic acid was quantitatively determined. The difference in the intracellular ascorbic acid cumulative amount between the case where ascorbic acid or a derivative thereof was added and the case where ascorbic acid or a derivative thereof was not added is shown in Table 2. […]

[2] = Stability: residual ratio (concentration after storage/initial concentration) by HPLC after standing at room temperature for 10 days; format: physicochemical; conditions: water
Experimental: Then, their residual ratios (concentration after storage/initial concentration) were determined by HPLC through a column Shodex Asahipak NH2P-50 4E (trade name, manufactured by Showa Denko KK) to evaluate stability.

Question: With O=C1O[C@H]([C@@H](O)CO)C(O)=C1OP(=O)([O-])[O-].[Mg+2] [L-Ascorbic acid-2-phosphate magnesium salt] as the compound, how does the “Intracellular Cumulative Amount (difference from not added)” value ([1]; addition amount 2 μM) read?
Answer: < 0.0002 Pmole/cell

Question: What about the “Intracellular Cumulative Amount (difference from not added)” value ([1]; addition amount 50 μM) of the same compound?
Answer: 0.0022 Pmole/cell

Question: What about the remaining at 240 h, 2000 µM ([2]; 2 mM aqueous solution, room temperature, 10 days, HPLC, read-out: Stability (residual ratio: concentration after storage/initial concentration)) of the same compound?
Answer: 97%

Question: For CCCCCCCCCCCCCCCC(=O)OC[C@H](O)[C@H]1OC(=O)C(OP(=O)(O)O)=C1O [L-Ascorbic acid-2-phosphate-6-palmitate magnesium salt], which remaining at 240 h, 2000 µM [2] is on record?
Answer: 98%
